Measured values reported in US20130072532A1, “TOPICAL TRANSDERMAL DEXMEDETOMIDINE COMPOSITIONS AND METHODS OF USE THEREOF” (priority 2010, published 2013).
Where two headings read alike, the source gives them in different places.

Key:
clinical = details: human, in vivo
From the text: Dexmedetomidine plasma concentration-time data from clinical study # REC-10-006 were used in predicting the steady-state concentration-time profiles resulting from once-daily (QD) and twice-daily (BID) topical application of a 0.25, 0.5, and 1-gram dose. The data from the following 3 subjects were used: 1001, 1004, and 1005. The three subjects participated in the following treatment arms: Treatment A (0.25-gram dose), Treatment C (0.5-gram dose), and Treatment E (1.0-gram dose). Clinical study # REC-10-006 was a single ascending-dose study with multiple treatment arms (Treatments A, B, C, D and E). Plasma samples for drug analysis were taken at pre-dose (0 hour) and at the following specified times after dosing: 0.5, 1, 1.5, 2, 3, 4, 6, 8, 10, 12, 18, 24, 30, 36, and 48 hours. The lower limit of quantification of the bioanalytical assay was 0.02 ng/mL.
All pharmacokinetic parameters were analyzed using compartmental analysis. Dexmedetomidine plasma concentration-time data from Period 1 (REC-10-006) were used in predicting the steady-state concentration-time profiles resulting from once-daily (QD) and twice-daily (BID) topical application of 0.25-, 0.5- and 1.0-gram doses. The data used were from three subjects (Identifiers 1001, 1004, and 1005) who participated in treatment arms A (0.25-gram dose), C (0.5-gram dose), and E (1.0-gram dose). Blood samples for drug analysis were taken at pre-dose and at the following specified times after dosing: 0.25, 0.5, 0.75, 1, 1.5, 2, 2.5, 3, 4, 5, 6, 7, 8, 12, 24, 48, and 72 hours. […] Once the PK parameters were calculated and the single-dose concentrations were generated, the data were imported into WinNonlin™, Version 5.2 (WinNonlin™ Copyright ©2008, Pharsight Corporation), a nonparametric superposition was carried out to predicted the steady-state plasma concentration-time profiles resulting from QD and BID dosing.
As stated previously, the PK parameters were calculated using nonlinear-mixed-effect model using the software MonoLix 3.1. […]

[1] = humans, cited from earlier work
[2] = human subjects, buccal administration; cited from earlier work
α2-aderenoceptor = details: selective α2-adrenoceptor agonist; cited from earlier work

SMILES: Cc1cccc([C@H](C)c2cnc[nH]2)c1C [dexmedetomidine, 5-[(1S)-1-(2,3-dimethylphenyl)ethyl]-1H-imidazole]
- period of absorption at a constant rate (clinical): ~20 h
- portion of the plasma concentrations below the quantifiable level of 0.02 ng/mL (clinical): 67%
- half-life (clinical; topical or ocular): ~15 h
- time to maximum concentration in blood ([1]; i.m. administration): 1.6 to 1.7 h
- time to maximum concentration in blood ([1]; transdermal administration): 6 h
- time of maximum concentration [2]: approximately 1.5 h
- selectivity relative to that of clonidine (α2-aderenoceptor): approximately 10 fold
